Experimental data as given in US20240148714A1, “Triple Negative Breast Cancer Treatment Method” (Exelixis, Inc., priority 2016, published 2024).
Entries after “also recorded” stand apart in the source; their conditions may differ.

Tested on: plasma biomarkers
Assay: Circulating biomarker assays: plasma proteins (multiplex arrays, ELISA)
Format: in vivo, human
Parameters: plasma VEGF R2, Median / plasma bFGF, Median / plasma sPLT-3, Median / plasma VEGF, Median / plasma VEGF-D, Median / plasma sMET, Median: unit not given beside the values
From the text: Circulating Biomarker Assays: Potential biomarkers of cabozantinib activity were identified by measuring plasma proteins at baseline, on day 8 of therapy, on day 1 of each cycle of therapy, and, if available, at the time of progression. Eight milliliters of blood was collected in purple top (plasma EDTA) vacutainers and shipped on wet ice to a Clinical Laboratory Improvement Amendments-certified core in the Steele Laboratories (Massachusetts General Hospital), where whole blood was separated by centrifugation into cellular fraction and plasma. The fraction of stem/progenitor cell, lymphocyte, and myeloid populations of total circulating mononuclear cells were counted by flow cytometry using a LSR-II cytometer and FACSDiva software in fresh blood samples using the following markers: CD3, CD4, CD8, CD14, CD25, CD34, CD45, CD56, CD127, and CD133 (Becton Dickinson, Franklin Lakes, NJ, www.bd.com). Plasma was prepared in the standard fashion and stored at −78° C. until collection and analysis of all samples. The biomarkers measured included VEGF, placental growth factor (PlGF), VEGF-C, VEGF-D, soluble VEGFR1 (sVEGFR1), basic fibroblast growth factor (bFGF), and sTie-2 (using a 7-plex Growth Factor array) and granulocyte-macrophage colony stimulating factor (GM-CSF), interferon gamma (IFN-g), tumor necrosis factor alpha (TNF-a), and interleukin-1beta (IL-1b), IL-2, IL-6, IL-8, IL-10, and IL-12 heterodimer p70 (using a 9-plex Inflammatory Factor array; both Meso Scale Discovery, Gaithersburg, MD, www.mesoscale.com); and HGF, sMET, carbonic anhydrase IX (CAIX), stromal cell-derived factor 1 a (SDF1a), and sVEGFR2 by single analyte enzyme-linked immunosorbent assay (R&D Systems, Minneapolis, MN, www.rndsystems.com). Descriptive statistics were used to summarize biomarker values at protocol-specific time points. […] The Wilcoxon signed rank test assessed biomarker change from day 1 to 8. Mixed effects linear models assessed the change in biomarker values at days 1, 8, 22, 43, and 64; values beyond day 64 were not analyzed because of the small number of patients still on protocol. In the mixed effects linear model, the fixed effects were times of assessment, and patients were entered as a random effect. Logarithmic transformation was used to achieve normality, when applicable. Baseline biomarkers were stratified by using the median values for the entire cohort. The log-rank test compared PFS among patients with low or high baseline sMET. All tests were conducted with two-sided […]. The Benjamini-Hochberg procedure was used to adjust p values to control the false discovery rate from evaluating multiple circulating biomarkers.

[1] = baseline to day 22, maintained at day 64

SMILES: COc1cc2nccc(Oc3ccc(NC(=O)C4(C(=O)Nc5ccc(F)cc5)CC4)cc3)c2cc1OC [cabozantinib]
- plasma VEGF R2, Median (Day 1 (baseline)): 8.872
- plasma VEGF, Median (Day 1 (baseline)): 98
- plasma VEGF-D, Median (Day 1 (baseline)): 1.062
- plasma bFGF, Median (Day 1 (baseline)): 39
- plasma sMET, Median (Day 1 (baseline)): 795
- plasma sPLT-3, Median (Day 1 (baseline)): 1.24
- plasma VEGF R2, Median (Day 8): 8.475
- plasma VEGF, Median (Day 8): 188
- plasma VEGF-D, Median (Day 8): 1.419
- plasma bFGF, Median (Day 8): 41
- plasma sMET, Median (Day 8): 890
- plasma sPLT-3, Median (Day 8): 50
- plasma VEGF R2, Median (Day 22): 6.726
- plasma VEGF, Median (Day 22): 206
- plasma VEGF-D, Median (Day 22): 1.582
- plasma bFGF, Median (Day 22): 28
- plasma sMET, Median (Day 22): 902
- plasma sPLT-3, Median (Day 22): 90
- plasma VEGF R2, Median (Day 43): 5.812
- plasma VEGF, Median (Day 43): 206
- plasma VEGF-D, Median (Day 43): 1.437
- plasma bFGF, Median (Day 43): 33
- plasma sMET, Median (Day 43): 903
- plasma sPLT-3, Median (Day 43): 124
- plasma VEGF R2, Median (Day 64): 5.968
- plasma VEGF-D, Median (Day 64): 1.429
- plasma bFGF, Median (Day 64): 21
- plasma sMET, Median (Day 64): 923
- plasma sPLT-3, Median (Day 64): 87
- change in plasma PIGF [1]: increases
- change in plasma VEGF [1]: increases
- change in plasma VEGF-D [1]: increases
- change in plasma HGF (day 8): initially decreased
- change in plasma SDF1a (day 22): transiently increased; also recorded: increases
- change in plasma HGF (day 64): increased
- change in plasma CAIX (days 43 and 64): increases
- change in plasma sVEGFR2 (days 43 and 64): significantly decreased
- change in plasma bFGF over time (in vivo): did not significantly change
- change in plasma sMET over time (in vivo): did not significantly change
- change in plasma sTIE-2 over time (in vivo): did not significantly change
- change in plasma sVEGFR1 over time (in vivo): did not significantly change
